Data from paper PMC10747462, “A Hydrolase Produced by Rhodococcus erythropolis HQ Is Responsible for the Detoxification of Zearalenone” (Toxins, 2023).

Test system: T1, ZenR
T1 construct: gene PXH69_30770
Conditions: read-out: Km,app; optimal conditions (55 °C, pH 8.0-9.0); 10-300 μM ZEN; no metal needed

T1 sequence (A0AAW6LW22 entry or part of it): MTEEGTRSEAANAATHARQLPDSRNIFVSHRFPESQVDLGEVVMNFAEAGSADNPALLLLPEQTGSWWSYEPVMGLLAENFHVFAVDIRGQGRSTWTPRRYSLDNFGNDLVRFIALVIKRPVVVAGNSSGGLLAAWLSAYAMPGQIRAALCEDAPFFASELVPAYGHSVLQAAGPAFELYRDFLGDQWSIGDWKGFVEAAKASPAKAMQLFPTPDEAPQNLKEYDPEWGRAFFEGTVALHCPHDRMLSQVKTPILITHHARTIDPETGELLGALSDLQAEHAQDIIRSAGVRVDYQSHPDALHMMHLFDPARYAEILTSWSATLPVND

C[C@H]1CCCC(=O)CCC/C=C/c2cc(O)cc(O)c2C(=O)O1 [Zearalenone] was tested. Which Km did it give?
Its Km is 21.14 ± 0.16 µM.
